In ChEMBL document CHEMBL5316327, “Design and Synthesis of Orally Active Quinolyl Pyrazinamides as Sigma 2 Receptor Ligands for the Treatment of Pancreatic Cancer” (J Med Chem, 2023):
Activity calls are given as the source filed them. The calls are words filed in the database; no cut-off is given here.

Experiments:
HCT-116 [1] = test: Induction of apoptosis in human HCT-116 cells assessed as late apoptotic cells at 1.0 uM measured after 48 hrs by Annexin V-Alexa Fluor 488/propidium iodide staining based flow cytometry (reference value: 8.48%); assay type: functional
MIA PaCa-2 [2] = test: Induction of autophagy in human MIA PaCa-2 cells assessed as upregulation of LC-3 level at 1 to 10 uM measured after 24 hrs; assay type: functional, cell-based; details: dose 1-10 µM
HCT-116 [3] = test: Induction of cell cycle arrest in human HCT-116 cells assessed as accumulation of cells in G2/M phase at […] measured after 24 hrs by propidium iodide staining-based flow cytometric analysis (reference value: 10%); assay type: functional; details: dose 2.5 µM
MIA PaCa-2 [4] = test: Induction of apoptosis in human MIA PaCa-2 cells assessed as necrotic cells at 1.0 uM measured after 48 hrs by Annexin V-Alexa Fluor 488/propidium iodide staining based flow cytometry (reference value: 7.03%); assay type: functional
[5] = Solubility of the compound; assay type: physicochemical
[6] = Cytotoxicity against HPDE cells measured after 72 hrs by MTT assay; assay type: toxicity, cell-based; details: human
MIA PaCa-2 [7] = test: Additive ferroptosis activity in human MIA-PaCa-2 cells at upto 1 uM measured after 7 days in presence of FIN56 by crystal violet staining based analysis; assay type: functional, cell-based; details: time 7.0 day
HCT-116 [8] = test: Induction of apoptosis in human HCT-116 cells assessed as necrotic cells at […] measured after 48 hrs by Annexin V-Alexa Fluor 488/propidium iodide staining based flow cytometry (reference value: 9.06%); assay type: functional; details: dose 2.5 µM
HCT-116 [9] = test: Induction of apoptosis in human HCT-116 cells assessed as viable cells at 5.0 uM measured after 48 hrs by Annexin V-Alexa Fluor 488/propidium iodide staining based flow cytometry (reference value: 79.69%); assay type: functional; details: read-out: Activity
MIA PaCa-2 [10] = test: Induction of apoptosis in human MIA PaCa-2 cells assessed as necrotic cells at […] measured after 48 hrs by Annexin V-Alexa Fluor 488/propidium iodide staining based flow cytometry (reference value: 7.03%); assay type: functional; details: dose 2.5 µM
MIA PaCa-2 [11] = test: Synergistic cytotoxicity against human MIA PaCa-2 cells at upto 1 uM measured after 7 days in presence of copper chloride by crystal violet staining based analysis; assay type: functional, cell-based; details: time 7.0 day
MIA PaCa-2 [12] = test: Induction of cell cycle arrest in human MIA PaCa-2 cells assessed as accumulation of cells in G0/G1 phase at 10 uM measured after 24 hrs by propidium iodide staining-based flow cytometric analysis (reference value: 53%); assay type: functional
MIA PaCa-2 [13] = test: Induction of apoptosis in human MIA PaCa-2 cells assessed as late apoptotic cells at […] measured after 48 hrs by Annexin V-Alexa Fluor 488/propidium iodide staining based flow cytometry (reference value: 6.63%); assay type: functional; details: dose 2.5 µM
[14] = target: Sigma intracellular receptor 2 (Homo sapiens, UniProt Q5BJF2); test: Displacement of [3H][…]ditolylguanidine from human sigma 2 receptor transfected in human HEK293T cells assessed as inhibition constant by radioligand competition binding assay; assay type: cell-based
HCT-116 [15] = test: Induction of apoptosis in human HCT-116 cells assessed as early apoptotic cells at 10.0 uM measured after 48 hrs by Annexin V-Alexa Fluor 488/propidium iodide staining based flow cytometry (reference value: 2.77%); assay type: functional
[16] = target: Sigma non-opioid intracellular receptor 1 (Homo sapiens, UniProt Q99720); test: Displacement of [3H](+)-pentazocine from human sigma 1 receptor transfected in human HEK293T cells assessed as inhibition constant by radioligand competition binding assay; assay type: cell-based
MIA PaCa-2 [17] = test: Induction of cell cycle arrest in human MIA PaCa-2 cells assessed as accumulation of cells in G2/M phase at 5 uM measured after 24 hrs by propidium iodide staining-based flow cytometric analysis (reference value: 16%); assay type: functional
MIA PaCa-2 [18] = test: Additive ferroptosis activity in human MIA-PaCa-2 cells at upto 1 uM measured after 7 days in presence of erastin by crystal violet staining based analysis; assay type: functional, cell-based; details: time 7.0 day
MIA PaCa-2 [19] = test: Synergistic ferroptosis activity in human MIA-PaCa-2 cells at upto 1 uM measured after 7 days in presence of FIN56 by crystal violet staining based analysis; assay type: functional, cell-based; details: time 7.0 day
[20] = Toxicity in C57BL/6 mouse assessed as effect on body weight at 30 mg/kg, po measured upto 32 days in presence of copper sulfate; assay type: organism-based; details: in vivo, 768 h, time < 32 day
Histamine H2 receptor = Histamine H2 receptor (Homo sapiens, UniProt P25021); test: Binding affinity to histamine H2 receptor (unknown origin) assessed as inhibition constant
MIA PaCa-2 [21] = test: Synergistic cytotoxicity against human MIA PaCa-2 cells at upto 1 uM measured after 7 days in presence of ammonium tetrathiomolybdate by crystal violet staining based analysis; assay type: functional, cell-based; details: time 7.0 day
MIA PaCa-2 [22] = test: Induction of apoptosis in human MIA PaCa-2 cells assessed as late apoptotic cells at 5.0 uM measured after 48 hrs by Annexin V-Alexa Fluor 488/propidium iodide staining based flow cytometry (reference value: 6.63%); assay type: functional
HCT-116 [23] = test: Induction of apoptosis in human HCT-116 cells assessed as late apoptotic cells at 5.0 uM measured after 48 hrs by Annexin V-Alexa Fluor 488/propidium iodide staining based flow cytometry (reference value: 8.48%); assay type: functional
MIA PaCa-2 [24] = test: Synergistic cytotoxicity in human MIA PaCa-2 cells at upto 1 uM measured after 7 days in presence of gemcitabine by crystal violet staining based analysis; assay type: functional, cell-based; details: time 7.0 day
MIA PaCa-2 [25] = test: Induction of cell cycle arrest in human MIA PaCa-2 cells assessed as accumulation of cells in S phase at […] measured after 24 hrs by propidium iodide staining-based flow cytometric analysis (reference value: 31%); assay type: functional; details: dose 2.5 µM
[26] = Cytotoxicity against HFF-1 cells measured after 72 hrs by MTT assay; assay type: toxicity, cell-based; details: human
MIA PaCa-2 [27] = test: Induction of cell cycle arrest in human MIA PaCa-2 cells assessed as accumulation of cells in G2/M phase at […] measured after 24 hrs by propidium iodide staining-based flow cytometric analysis (reference value: 16%); assay type: functional; details: dose 2.5 µM
HCT-116 [28] = test: Induction of apoptosis in human HCT-116 cells assessed as late apoptotic cells at 10.0 uM measured after 48 hrs by Annexin V-Alexa Fluor 488/propidium iodide staining based flow cytometry (reference value: 8.48%); assay type: functional
cells = details: Mus musculus, KPC2, 72 h
MIA PaCa-2 [29] = test: Induction of apoptosis in human MIA PaCa-2 cells assessed as necrotic cells at 10.0 uM measured after 48 hrs by Annexin V-Alexa Fluor 488/propidium iodide staining based flow cytometry (reference value: 7.03%); assay type: functional
HCT-116 [30] = test: Induction of cell cycle arrest in human HCT-116 cells assessed as accumulation of cells in G0/G1 phase at 1 uM measured after 24 hrs by propidium iodide staining-based flow cytometric analysis (reference value: 43%); assay type: functional
HCT-116 [31] = test: Induction of apoptosis in human HCT-116 cells assessed as viable cells at […] measured after 48 hrs by Annexin V-Alexa Fluor 488/propidium iodide staining based flow cytometry (reference value: 79.69%); assay type: functional; details: dose 2.5 µM, read-out: Activity
HCT-116 [32] = test: Induction of cell cycle arrest in human HCT-116 cells assessed as accumulation of cells in G0/G1 phase at 5 uM measured after 24 hrs by propidium iodide staining-based flow cytometric analysis (reference value: 43%); assay type: functional
MIA PaCa-2 [33] = test: Additive ferroptosis activity in human MIA-PaCa-2 cells at upto 1 uM measured after 7 days in presence of ferrostatin-1 by crystal violet staining based analysis; assay type: functional, cell-based; details: time 7.0 day

Chain of Sigma non-opioid intracellular receptor 1 (Q99720 whole entry): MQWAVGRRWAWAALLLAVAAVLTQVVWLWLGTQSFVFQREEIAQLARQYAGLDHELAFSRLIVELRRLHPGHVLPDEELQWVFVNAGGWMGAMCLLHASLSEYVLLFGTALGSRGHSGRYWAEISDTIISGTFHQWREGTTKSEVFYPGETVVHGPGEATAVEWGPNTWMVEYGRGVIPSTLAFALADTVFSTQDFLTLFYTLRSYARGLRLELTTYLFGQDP
Chain of Sigma intracellular receptor 2 (Q5BJF2 whole entry): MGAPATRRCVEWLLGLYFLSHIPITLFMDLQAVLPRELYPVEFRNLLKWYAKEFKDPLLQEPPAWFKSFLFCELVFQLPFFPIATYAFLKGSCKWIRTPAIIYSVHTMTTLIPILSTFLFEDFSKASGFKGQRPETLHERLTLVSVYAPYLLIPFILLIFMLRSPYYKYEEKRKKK
Chain of Histamine H2 receptor (P25021 whole entry): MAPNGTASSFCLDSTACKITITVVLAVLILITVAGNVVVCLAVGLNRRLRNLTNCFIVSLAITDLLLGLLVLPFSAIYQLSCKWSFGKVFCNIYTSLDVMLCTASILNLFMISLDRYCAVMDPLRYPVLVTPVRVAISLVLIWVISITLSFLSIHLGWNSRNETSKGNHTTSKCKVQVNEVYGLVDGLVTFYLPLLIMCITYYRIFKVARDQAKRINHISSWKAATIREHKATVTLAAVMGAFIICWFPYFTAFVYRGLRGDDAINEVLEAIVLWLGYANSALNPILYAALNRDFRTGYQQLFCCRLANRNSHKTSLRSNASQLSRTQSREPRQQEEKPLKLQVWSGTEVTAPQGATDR

In the case of CCN(CC)CCCC(C)Nc1cnc(C(=O)Nc2ccc(Cl)c3cccnc23)cn1 (stereo not given), the Activity (HCT-116 [1]) is reported as 9.6%, the Activity (MIA PaCa-2 [2]) is reported as “Active” and the Activity (HCT-116 [3]) is reported as 19%. It also gave an Activity (MIA PaCa-2 [4]) of 3.16%, a solubility [5] greater than 5000 µg/mL and an IC50 at 72 h [6] of 300 nM. The Activity (MIA PaCa-2 [7]) was “Active”, the Activity (HCT-116 [8]) was 2.87% and the viability at 5 µM (HCT-116 [9]) was 64.1%. The Activity (MIA PaCa-2 [10]) was 5.91%, the Activity (MIA PaCa-2 [11]) was “Active” and the Activity (MIA PaCa-2 [12]) was 69%. For the same compound, the Activity (MIA PaCa-2 [13]) was 25.72%, the Ki [14] was 47 nM and the Activity (HCT-116 [15]) was 16.72%. The Ki [16] was 530 nM, the Activity (MIA PaCa-2 [17]) was 17% and the Activity (MIA PaCa-2 [18]) was “Active”. For the same compound, the Activity (MIA PaCa-2 [19]) was “Active”, the Activity [20] was “Non-Toxic” and the Ki (Histamine H2 receptor) was 91100 nM. For the same compound, the Activity (MIA PaCa-2 [21]) was “inactive”, the Activity (MIA PaCa-2 [22]) was 40.03% and the Activity (HCT-116 [23]) was 18.39%. For the same compound, the Activity (MIA PaCa-2 [24]) was “inactive”, the Activity (MIA PaCa-2 [25]) was 35% and the IC50 at 72 h [26] was 8000 nM. The Activity (MIA PaCa-2 [27]) was 16%, the Activity (HCT-116 [28]) was 47.98% and the IC50 (cells) was 2700 nM. For the same compound, the Activity (MIA PaCa-2 [29]) was 7.21%, the Activity (HCT-116 [30]) was 41% and the viability at […] (HCT-116 [31]) was 68.1%. The Activity (HCT-116 [32]) was 44% and the Activity (MIA PaCa-2 [33]) was “Active”.
